Tested on: Escherichia coli
Experiment: Induction of pBR322 DNA cleavage after 2.5 hrs relative to (E)-1,2-bis(2-(4-(phenylsulfonyl)but-2-ynyloxy)phenyl)diazene

In the case of `O=S(=O)(CC#CCOc1ccc2ccccc2c1)c1ccccc1`, the Activity is reported as 15%.

— ChEMBL document CHEMBL1149573, “Synthesis and reactivity of azobenzene-based bispropargyl sulfones: interesting comparison between cyclic and acyclic systems” (Bioorg Med Chem Lett, 2007)
